The conditions of data set [1]: in vivo; choline salt compared with the free acid.
A short description of the next data set: solubility in water. The format is physicochemical.

Take `CC1=NN(c2ccc(C)c(C)c2)C(=O)/C1=N\Nc1cccc(-c2cccc(-c3nnn[nH]3)c2)c1O` [Compound A, 2-(3,4-dimethylphenyl)-4-{[2-hydroxy-3′-(1H-tetrazol-5-yl)biphenyl-3-yl]-hydrazono}-5-methyl-2,4-dihydropyrazol-3-one choline]: in data set [1], the bioavailability entry was “enhanced” and the oral exposure entry was “enhanced”. As for `CC1=NN(c2ccc(C)c(C)c2)C(=O)C1=NNc1cccc(-c2cccc(-c3nnn[nH]3)c2)c1O` [free acid, 2-(3,4-dimethylphenyl)-4-{[2-hydroxy-3′-(1H-tetrazol-5-yl)biphenyl-3-yl]-hydrazono}-5-methyl-2,4-dihydropyrazol-3-one], the solubility in water result in the data set “solubility in water” was “poorly soluble”.

(Values after patent publication US7666857B2, “2-(3,4-dimethylphenyl)-4-{[2-hydroxy-3′-(1h-tetrazol-5-yl)biphenyl-3-yl]-hydrazono}-5-methyl-2,4-dihydropyrazol-3-one choline” (SmithKline Beecham Corp., priority 2004, dated 2010).)
